Experimental data taken from ChEMBL document CHEMBL1125050, “Potential antisecretory antidiarrheals. 2. Alpha 2-adrenergic 2-[(aryloxy)alkyl]imidazolines” (J Med Chem, 1990).
Calls of active or inactive are those of the source.

Tests used:
Rattus norvegicus [1] = species on record: Rattus norvegicus; test: animal or person; conditions: sc, read-out: ID50
[2] = Partition coefficient (logP); assay type: physicochemical; conditions: octanol/water
Rattus norvegicus [3] = assay type: functional; conditions: po, read-out: ID50 (the source's name)
Oryctolagus cuniculus [4] = species on record: Oryctolagus cuniculus; test: Inhibition of increase in potential difference caused by diarrhea inducing secretogogues determined in rabbit; ++ = active; assay type: functional, organism-based
Oryctolagus cuniculus [5] = species on record: Oryctolagus cuniculus; test: Inhibition of increase in potential difference caused by diarrhea inducing secretogogues determined in rabbit; 0 = inactive; assay type: functional
Rattus norvegicus [6] = species on record: Rattus norvegicus; test: Activity in the spontaneously hypertensive rats (SHR); active = post treatment BP changed; assay type: functional, organism-based
Rattus norvegicus [7] = species on record: Rattus norvegicus; test: Activity in the spontaneously hypertensive rats (SHR); rats died due to exophthalmic side effects; assay type: functional, organism-based
Oryctolagus cuniculus [8] = species on record: Oryctolagus cuniculus; test: Inhibition of increase in potential difference caused by diarrhea inducing secretogogues determined in rabbit; + = moderate activity; assay type: functional, organism-based
Rattus norvegicus [9] = species on record: Rattus norvegicus; test: Activity in the spontaneously hypertensive rats (SHR); inactive = post treatment BP did not change; assay type: functional, organism-based
Rattus norvegicus [10] = assay type: functional; conditions: sc, read-out: ID50 (the source's name)
Rattus norvegicus [11] = species on record: Rattus norvegicus; test: Activity in the spontaneously hypertensive rats (SHR); rats died due to convulsive side effects; assay type: functional, organism-based
Oryctolagus cuniculus [12] = species on record: Oryctolagus cuniculus; test: IInhibition of increase in potential difference caused by diarrhea inducing secretogogues determined in rabbit; 0 = inactive; assay type: functional

Cc1cccc(C)c1OC(C)C1=NCCN1 (centres undefined)
ED50 (Rattus norvegicus [1]): 1.7 mg/kg
logP ([2]; read-out: logP): 4.39
ED50 (Rattus norvegicus [3]): 2.7 mg/kg
Activity (Oryctolagus cuniculus [4]): Active

Cc1cc(C)c(OC(C)C2=NCCN2)cc1N (centres undefined)
Activity (Oryctolagus cuniculus [5]): 0
ED50 (Rattus norvegicus [1]): 7.8 mg/kg
logP ([2]; read-out: logP): 3.01

Cc1cccc(C)c1NC(C)C1=NCCN1 (centres undefined)
Activity (Oryctolagus cuniculus [5]): 0
ED50 (Rattus norvegicus [1]): > 100 mg/kg

CC(=O)Nc1cccc(OC(C)C2=NCCN2)c1C (centres undefined)
Activity (Oryctolagus cuniculus [5]): 0
ED50 (Rattus norvegicus [1]): 7 mg/kg
logP ([2]; read-out: logP): 2.43

Cc1c(N)cccc1OC(C)C1=NCCN1 (single isomer, unassigned)
Activity (Rattus norvegicus [6]): Active

Cc1cccc(C)c1OC(C)C1=NC2CCCCC2N1 (centres undefined)
ED50 (Rattus norvegicus [1]): 24.1 mg/kg

Cc1c(N)cccc1OC(C)C1=NCCN1.Cl.Cl (centres undefined)
ED50 (Rattus norvegicus [1]): 5.6 mg/kg
logP [2]: 2
ED50 (Rattus norvegicus [3]): 1.3 mg/kg

CC(Oc1cccn2ncnc12)C1=NCCN1.CO (centres undefined)
ED50 (Rattus norvegicus [1]): 26.5 mg/kg

Cc1cccc(C)c1OC(C)(C)C1=NCCN1
ED50 (Rattus norvegicus [1]): 3.7 mg/kg
logP ([2]; read-out: logP): 4.66
Activity (Oryctolagus cuniculus [4]): Active

Cc1ccc(OC(C)C2=NCCN2)c(C)c1 (centres undefined)
ED50 (Rattus norvegicus [1]): 24.1 mg/kg
logP ([2]; read-out: logP): 4.35

CCC(Oc1cccc(N)c1C)C1=NCCN1 (centres undefined)
Activity (Rattus norvegicus [6]): Active
ED50 (Rattus norvegicus [1]): 4.5 mg/kg
logP ([2]; read-out: logP): 3.19
ED50 (Rattus norvegicus [3]): 5.2 mg/kg

Cc1c(N)cccc1OC(CCO)C1=NCCN1 (centres undefined)
Activity (Rattus norvegicus [7]): rats died due to exophthalmic side effects
ED50 (Rattus norvegicus [1]): 1.2 mg/kg
logP ([2]; read-out: logP): 1.2
ED50 (Rattus norvegicus [3]): 1.3 mg/kg

COc1cccc(OC(C)C2=NCCN2)c1C (centres undefined)
ED50 (Rattus norvegicus [1]): > 100 mg/kg

Cc1cccc(C)c1OC(CCO)C1=NCCN1 (centres undefined)
Activity (Oryctolagus cuniculus [8]): moderate activity
Activity (Rattus norvegicus [9]): inactive
ED50 (Rattus norvegicus [1]): 6.9 mg/kg
logP ([2]; read-out: logP): 2.89

Cc1cccc(C)c1OC(C)C1=NCCN1C (centres undefined)
ED50 (Rattus norvegicus [1]): 32.4 mg/kg

CCOC(=O)Nc1ccc(C)c(OC(C)C2=NCCN2)c1C (centres undefined)
Activity (Oryctolagus cuniculus [8]): moderate activity
Activity (Rattus norvegicus [6]): Active
ED50 (Rattus norvegicus [1]): 3 mg/kg
logP ([2]; read-out: logP): 4.4

CCCc1cccc(CCC)c1OC(C)C1=NCCN1 (centres undefined)
Activity (Oryctolagus cuniculus [8]): moderate activity
ED50 (Rattus norvegicus [1]): > 100 mg/kg

CCc1ccccc1OC(C)C1=NCCN1 (centres undefined)
Activity (Oryctolagus cuniculus [8]): moderate activity
ED50 (Rattus norvegicus [1]): 22.9 mg/kg
logP ([2]; read-out: logP): 4.23

CC(Oc1cccc2[nH]ccc12)C1=NCCN1 (centres undefined)
Activity (Rattus norvegicus [6]): Active
ED50 (Rattus norvegicus [1]): 5.7 mg/kg
logP ([2]; read-out: logP): 3.12
ED50 (Rattus norvegicus [3]): 6.6 mg/kg
Activity (Oryctolagus cuniculus [4]): Active

Cc1ccc2ccccc2c1OC(C)C1=NCCN1 (centres undefined)
Activity (Oryctolagus cuniculus [5]): 0
ED50 (Rattus norvegicus [1]): > 100 mg/kg

CCc1cccc(CC)c1OC(C)C1=NCCN1 (centres undefined)
Activity (Rattus norvegicus [9]): inactive
ED50 (Rattus norvegicus [1]): 2.3 mg/kg
logP ([2]; read-out: logP): 5.41
Activity (Oryctolagus cuniculus [4]): Active

Cc1cccc(C)c1OC(C)C1=NCCS1 (centres undefined)
Activity (Oryctolagus cuniculus [5]): 0
ED50 (Rattus norvegicus [1]): > 100 mg/kg

Cc1c(OCc2ccccc2)cccc1OC(C)C1=NCCN1 (centres undefined)
Activity (Oryctolagus cuniculus [8]): moderate activity
ED50 (Rattus norvegicus [1]): > 100 mg/kg

Cc1ncccc1OC(C)C1=NCCN1 (centres undefined)
ED50 (Rattus norvegicus [10]): > 100 mg/kg

Cc1c(N)cc(N)c(C)c1OC(C)C1=NCCN1 (centres undefined)
ED50 (Rattus norvegicus [10]): 32 mg/kg

Cc1cccc(C)c1SC(C)C1=NCCN1 (centres undefined)
Activity (Oryctolagus cuniculus [5]): 0
ED50 (Rattus norvegicus [1]): > 100 mg/kg

Cc1cc(Br)cc(C)c1OC(C)C1=NCCN1 (centres undefined)
ED50 (Rattus norvegicus [1]): > 100 mg/kg

Cc1cc2[nH]cnc2c(C)c1OC(C)C1=NCCN1 (centres undefined)
Activity (Oryctolagus cuniculus [5]): 0
ED50 (Rattus norvegicus [1]): > 100 mg/kg

Cc1c(O)cccc1OC(C)C1=NCCN1 (centres undefined)
Activity (Oryctolagus cuniculus [8]): moderate activity
Activity (Rattus norvegicus [9]): inactive
ED50 (Rattus norvegicus [1]): 17.2 mg/kg
logP ([2]; read-out: logP): 3.21

Cc1cc([N+](=O)[O-])cc(C)c1OC(C)C1=NCCN1 (centres undefined)
Activity (Oryctolagus cuniculus [5]): 0
ED50 (Rattus norvegicus [1]): > 100 mg/kg

Cc1cccc(C)c1OCC1=NCCN1
Activity (Oryctolagus cuniculus [8]): moderate activity
ED50 (Rattus norvegicus [1]): > 100 mg/kg

Cc1cc(C)c(OC(C)C2=NCCN2)c(C)c1 (centres undefined)
Activity (Oryctolagus cuniculus [5]): 0
Activity (Rattus norvegicus [9]): inactive
ED50 (Rattus norvegicus [1]): 11.1 mg/kg
logP ([2]; read-out: logP): 5

CC(Oc1cccc2ccccc12)C1=NCCN1 (centres undefined)
Activity (Oryctolagus cuniculus [5]): 0
Activity (Rattus norvegicus [9]): inactive
ED50 (Rattus norvegicus [1]): 17.9 mg/kg
logP ([2]; read-out: logP): 4.35
ED50 (Rattus norvegicus [3]): 16.1 mg/kg

Cc1ccc(N)c(C)c1OC(C)C1=NCCN1 (centres undefined)
Activity (Rattus norvegicus [6]): Active
ED50 (Rattus norvegicus [1]): 1 mg/kg
logP ([2]; read-out: logP): 3.31
Activity (Oryctolagus cuniculus [4]): Active

Cc1cc(Br)c(N)c(C)c1OC(C)C1=NCCN1 (centres undefined)
ED50 (Rattus norvegicus [1]): > 100 mg/kg

Cc1cc(C(=O)O)cc(C)c1OC(C)C1=NCCN1 (centres undefined)
Activity (Oryctolagus cuniculus [5]): 0
ED50 (Rattus norvegicus [1]): > 100 mg/kg

Cc1ccc2[nH]ccc2c1OC(C)C1=NCCN1.ClCCl (centres undefined)
Activity (Rattus norvegicus [11]): rats died due to convulsive side effects
ED50 (Rattus norvegicus [1]): 1.6 mg/kg
logP ([2]; read-out: logP): 3.77
ED50 (Rattus norvegicus [3]): 1.2 mg/kg

Cc1c(N)cccc1OC(C)C1=NCCN1 (stereo in doubt; 32) [listing 1 of 2 here]
logP ([2]; read-out: logP): 2

Cc1c(N)cccc1OC(C)C1=NCCN1 (stereo in doubt; 32) [listing 2 of 2 here]
Activity (Rattus norvegicus [6]): Active

CCC(Oc1c(C)cccc1C)C1=NCCN1 (centres undefined)
Activity (Oryctolagus cuniculus [5]): 0
ED50 (Rattus norvegicus [1]): 5.2 mg/kg
logP ([2]; read-out: logP): 4.88

CC(Oc1cncc2ccccc12)C1=NCCN1 (centres undefined)
ED50 (Rattus norvegicus [1]): 21.7 mg/kg

Cc1cccc(C)c1CC(C)C1=NCCN1 (centres undefined)
Activity (Oryctolagus cuniculus [5]): 0
ED50 (Rattus norvegicus [1]): > 100 mg/kg

Cc1cccc(C)c1OC(C)c1nc2ccccc2[nH]1 (centres undefined)
ED50 (Rattus norvegicus [1]): > 100 mg/kg

Cc1c(N)cccc1OC(C)C1=NCCN1 (centres undefined)
Activity (Oryctolagus cuniculus [4]): Active

CC(Oc1ccc2ccccc2c1)C1=NCCN1 (centres undefined)
Activity (Oryctolagus cuniculus [5]): 0
ED50 (Rattus norvegicus [1]): > 100 mg/kg

COc1cccc(OC)c1OC(C)C1=NCCN1 (centres undefined)
ED50 (Rattus norvegicus [1]): > 100 mg/kg

Cc1cccc(C)c1OC(C)C1=NCCCN1 (centres undefined)
Activity (Oryctolagus cuniculus [5]): 0
ED50 (Rattus norvegicus [1]): > 100 mg/kg

C=CCc1cccc(CC=C)c1OC(C)C1=NCCN1 (centres undefined)
ED50 (Rattus norvegicus [1]): > 100 mg/kg

Cc1c(OC(C)C2=NCCN2)cccc1N(C)C (centres undefined)
Activity (Oryctolagus cuniculus [5]): 0
ED50 (Rattus norvegicus [1]): 4 mg/kg
logP ([2]; read-out: logP): 4

CCOC(=O)Nc1cccc(OC(C)C2=NCCN2)c1C (centres undefined)
Activity (Oryctolagus cuniculus [5]): 0
Activity (Rattus norvegicus [6]): Active
ED50 (Rattus norvegicus [1]): 9.5 mg/kg
logP ([2]; read-out: logP): 3.27
ED50 (Rattus norvegicus [3]): 4.6 mg/kg

CC(Oc1cccc(N)c1)C1=NCCN1 (centres undefined)
Activity (Oryctolagus cuniculus [5]): 0
ED50 (Rattus norvegicus [1]): > 100 mg/kg

Cc1ccc(N)cc1OC(C)C1=NCCN1 (centres undefined)
Activity (Oryctolagus cuniculus [5]): 0
ED50 (Rattus norvegicus [1]): > 100 mg/kg

CC(Oc1c(Cl)cccc1Cl)C1=NCCN1 (centres undefined) [LOFEXIDINE]
ED50 (Rattus norvegicus [1]): < 2 mg/kg

Cc1cc(N)cc(C)c1OC(C)C1=NCCN1 (centres undefined)
ED50 (Rattus norvegicus [1]): > 100 mg/kg
Activity (Oryctolagus cuniculus [12]): 0

Clc1cccc(Cl)c1NC1=NCCN1 [CLONIDINE]
ED50 (Rattus norvegicus [1]): 0.3 mg/kg

Cc1cc(C(=O)OC(C)(C)C)cc(C)c1OC(C)C1=NCCN1 (centres undefined)
ED50 (Rattus norvegicus [1]): > 100 mg/kg
